2 compounds from PubChem BioAssay AID1259411 (Chemical Carcinogenesis Research Information System (CCRIS), 2018) can be followed below.

Activity calls are given as the source filed them. How the calls were made is not given here.

The subject of the data set is rodent carcinogenicity bioassays, tumor incidence. In words: CCRIS carcinogenicity studies. A digest of the protocol: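 NCI-built, expert-reviewed records of carcinogenicity and related test outcomes (mutagenicity, tumor promotion/inhibition) compiled from published and report sources, historical span 1985-2011, not updated.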

For `C=C(Cl)Cl`, the carcinogen call is “inactive; negative” (Species: FISH, Strain/Sex: SHASTA RAINBOW TROUT/MALE, FEMALE, Route: ORAL, Dose: 0, 2000 PPM IN DIET FOR 18 MO (STUDY DURATION: 18 MO)); “active; positive” (Species: MOUSE, Route: INHALATION, Tumor Site: Type of Lesion: KIDNEY, LUNG, LIVER, Tumor Site: Type of Lesion: KIDNEY, LUNG, LIVER); “inactive; negative” (Species: RAT, Strain/Sex: SPRAGUE-DAWLEY/FEMALE, Route: GAVAGE, Dose: 0, 0.5, 5, 10, 20 MG/KG BW IN OLIVE OIL 1/D 4-5 D/WK FOR 52-59 WK (STUDY DURATION: LIFETIME), Dose: 0, 0.5, 5, 10, 20 MG/KG BW IN OLIVE OIL 1/D 4-5 D/WK FOR 52-59 WK (STUDY DURATION: LIFETIME), Tumor Site: Type of Lesion: [BRAIN WAS ONLY SITE EVALUATED]); “inactive; negative” (Species: RAT, Strain/Sex: SPRAGUE-DAWLEY/FEMALE, Route: INHALATION, Dose: 0, 10, 25, 50, 100, 150 PPM IN AIR 4 HR/D 4-5 D/WK FOR 52 WK (STUDY DURATION: LIFETIME), Dose: 0, 10, 25, 50, 100, 150 PPM IN AIR 4 HR/D 4-5 D/WK FOR 52 WK (STUDY DURATION: LIFETIME), Tumor Site: Type of Lesion: [BRAIN WAS ONLY SITE EVALUATED]); “inactive; negative” (Species: RAT, Strain/Sex: SPRAGUE-DAWLEY/FEMALE, Route: INHALATION, Dose: 0, 100 PPM 4 HR/D 5 D/WK FOR 7 WK THEN 7 HR/D 5 D/WK FOR 8 WK ADMINISTERED TO RAT EMBRYOS BEGINNING ON THE 12TH DAY OF G); “inactive; negative” (Species: RAT, Strain/Sex: SPRAGUE-DAWLEY/FEMALE, Route: INHALATION, Dose: 0, 100 PPM 4 HR/D 5 D/WK FOR 7 WK THEN 7 HR/D 5 D/WK FOR 97 WK ADMINISTERED TO BREEDER RATS (STUDY DURATION: 104 WK)). Besides, the carcinogen call by setting is: (Species: RAT, Strain/Sex: SPRAGUE-DAWLEY/FEMALE, Route: INHALATION, Dose: 0, 100 PPM 4 HR/D 5 D/WK FOR 7 WK THEN 7 HR/D 5 D/WK FOR 97 WK ADMINISTERED TO RAT EMBRYOS BEGINNING ON 12TH DAY OF GEST, Tumor Site: Type of Lesion: HEMATOPOIETIC SYSTEM: LEUKEMIA) “active; positive”; (Species: RAT, Strain/Sex: SPRAGUE-DAWLEY/FEMALE, Route: ORAL, Dose: 0, 50, 100, 200 PPM IN DRINKING WATER FOR 2 YR (STUDY DURATION: 2 YR), Dose: 0, 50, 100, 200 PPM IN DRINKING WATER FOR 2 YR (STUDY DURATION: 2 YR)) “inactive; negative”; (Species: RAT, Strain/Sex: SPRAGUE-DAWLEY/MALE, Route: GAVAGE, Dose: 0, 0.5, 5, 10, 20 MG/KG BW IN OLIVE OIL 1/D 4-5 D/WK FOR 52-59 WK (STUDY DURATION: LIFETIME), Dose: 0, 0.5, 5, 10, 20 MG/KG BW IN OLIVE OIL 1/D 4-5 D/WK FOR 52-59 WK (STUDY DURATION: LIFETIME), Tumor Site: Type of Lesion: [BRAIN WAS ONLY SITE EVALUATED]) “inactive; negative”; (Species: RAT, Strain/Sex: SPRAGUE-DAWLEY/MALE, Route: INHALATION, Dose: 0, 10, 25, 50, 100, 150 PPM IN AIR 4 HR/D 4-5 D/WK FOR 52 WK (STUDY DURATION: LIFETIME), Dose: 0, 10, 25, 50, 100, 150 PPM IN AIR 4 HR/D 4-5 D/WK FOR 52 WK (STUDY DURATION: LIFETIME), Tumor Site: Type of Lesion: [BRAIN WAS ONLY SITE EVALUATED]) “inactive; negative”; (Species: RAT, Strain/Sex: SPRAGUE-DAWLEY/MALE, Route: INHALATION, Dose: 0, 100 PPM 4 HR/D 5 D/WK FOR 7 WK THEN 7 HR/D 5 D/WK FOR 8 WK ADMINISTERED TO RAT EMBRYOS BEGINNING ON THE 12TH DAY OF G) “inactive; negative”; (Species: RAT, Strain/Sex: SPRAGUE-DAWLEY/MALE, Route: INHALATION, Dose: 0, 100 PPM 4 HR/D 5 D/WK FOR 7 WK THEN 7 HR/D 5 D/WK FOR 97 WK ADMINISTERED TO RAT EMBRYOS BEGINNING ON 12TH DAY OF GEST) “inactive; negative”. Moreover, the carcinogen call was “inactive; negative” (Species: RAT, Strain/Sex: SPRAGUE-DAWLEY/MALE, Route: ORAL, Dose: 0, 50, 100, 200 PPM IN DRINKING WATER FOR 2 YR (STUDY DURATION: 2 YR), Dose: 0, 50, 100, 200 PPM IN DRINKING WATER FOR 2 YR (STUDY DURATION: 2 YR)) and “active; positive” (Species: RAT, Strain/Sex: SPRAGUE-DAWLEY, Route: INHALATION, Tumor Site: Type of Lesion: MAMMARY GLAND: FIBROADENOMA, CARCINOMA).

In the case of `CC(C)CCCCCCOC(=O)c1ccccc1C(=O)OCCCCCCC(C)C`, the carcinogen call is “inactive; negative” (Species: RAT, Strain/Sex: F344/FEMALE, Route: ORAL, Dose: 0, 0.03, 0.3, 0.6% IN DIET FOR DURATION OF STUDY (STUDY DURATION: 24 MO), Dose: 0, 0.03, 0.3, 0.6% IN DIET FOR DURATION OF STUDY (STUDY DURATION: 24 MO)) and “inactive; negative” (Species: RAT, Strain/Sex: F344/MALE, Route: ORAL, Dose: 0, 0.03, 0.3, 0.6% IN DIET FOR DURATION OF STUDY (STUDY DURATION: 24 MO), Dose: 0, 0.03, 0.3, 0.6% IN DIET FOR DURATION OF STUDY (STUDY DURATION: 24 MO)).
